Data reported in PubChem BioAssay AID1205 (EPA DSSTox, 2008).
Calls of active or inactive are those of the source.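 How the source made its calls: active means tumour findings in long-term animal cancer tests in more than one sex, species or organ; inactive means no tumour finding and more than one negative test.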

Test: DSSTox (CPDBAS) Carcinogenic Potency Database Summary MultiCellCall Results
Details: animal carcinogenicity bioassays, multi-cell call summary
Summary of the method: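 ActivityScore sums 50 for multispecies, 30 for multisex and 20 for multisite positivity. Based on the most positive experiment per sex-species across standardised chronic rodent and other animal cancer tests.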

Compound | outcome
CN(C)c1ccc(C(=C2C=CC(=[N+](C)C)C=C2)c2ccc(N(C)C)cc2)cc1 | active; multisite active; multisex active
Oc1cccc(O)c1 | inactive; multisex inactive; multispecies inactive
CCC[CH2][Sn]([CH2]CCC)([O]C(C)=O)[O]C(C)=O | inactive; multisex inactive; multispecies inactive
O=NN(CCO)C(=O)NCCCl | active; multisite active; multisex active
CC(=O)Oc1c(C)c(C)c2c(c1C)CCC(C)(CCCC(C)CCCC(C)CCCC(C)C)O2 (stereo unspecified) | inactive; multisex inactive
CCCc1cc(=O)[nH]c(=S)[nH]1 | active; multisite active; multisex active; multispecies active
CC(=O)Nc1nnc(-c2ccc([N+](=O)[O-])o2)s1 | active; multisite active; multispecies active
CN(N=O)C1=Nc2ccc(Cl)cc2C(c2ccccc2)=[N+]([O-])C1 | inactive; multisex inactive
CN(C)CCN(Cc1ccsc1)c1ccccn1 | inactive; multisex inactive
O=CNc1nc(-c2ccc([N+](=O)[O-])o2)cs1 | active; multisite active; multisex active; multispecies active
NC(=O)c1cnccn1 | inactive; multisex inactive; multispecies inactive
CC1=CC(=O)NS(=O)(=O)O1 | inactive; multisex inactive
O=[N+]([O-])OCC(CO[N+](=O)[O-])O[N+](=O)[O-] | active; multisite active; multisex active
NNc1nc(-c2ccc(N)cc2)cs1 | active; multisite active; multispecies active
Cc1ccc(N)cc1 | active; multisex active
CCCCN(N)C=O | active; multisite active; multisex active
NS(=O)(=O)c1cc2c(cc1Cl)NCNS2(=O)=O | inactive; multisex inactive; multispecies inactive
O=P(O)(OCC(Br)CBr)OCC(Br)CBr (stereo unspecified) | active; multisite active; multisex active
N | inactive; multisex inactive
O=C/C(Cl)=C(/Cl)C(=O)O | inactive; multisex inactive
CC1(C)S[C@@H]2[C@H](NC(=O)[C@H](N)c3ccccc3)C(=O)N2[C@H]1C(=O)O | inactive; multisex inactive; multispecies inactive
O=[N+]([O-])c1ccc(-c2cnc3ccccn23)o1 | active; multisite active; multisex active; multispecies active
C=CCN(N)CC=C | active; multisite active; multisex active
O=P1(N(CCCl)CCCl)NCCCO1 (stereo unspecified) | active; multisite active; multisex active; multispecies active

Compound | outcome
CC(O)CN(C)N=O (stereo unspecified) | active; multisite active; multisex active
CNCCC(Oc1ccc(C(F)(F)F)cc1)c1ccccc1 (stereo unspecified) | inactive; multisex inactive; multispecies inactive
CN(C)C(=O)Cl | active; multisite active; multisex active; multispecies active
COc1ccccc1N1CCN(CCCNc2cc(=O)n(C)c(=O)n2C)CC1 | inactive; multisex inactive
C=CCOC(=O)c1ccccc1C(=O)OCC=C | inactive; multisex inactive; multispecies inactive
Cc1ccc(N=Nc2c(O)c(S(=O)(=O)O)cc3ccc(S(=O)(=O)O)cc23)c(C)c1 | active; multisex active; multispecies active
CN(C)CCN(C)N=O | active; multisite active; multisex active
CCCCCN(N=O)C(N)=O | active; multisite active; multisex active
CC(/C=C/C=C(\C)C(=O)O[C@@H]1O[C@H](CO[C@@H]2O[C@H](CO)[C@@H](O)[C@H](O)[C@H]2O)[C@@H](O)[C@H](O)[C@H]1O)=C\C=C\C=C(C)\C=C\C=C(/C)C(=O)O[C@@H]1O[C@H](CO[C@@H]2O[C@H](CO)[C@@H](O)[C@H](O)[C@H]2O)[C@@H](O)[C@H](O)[C@H]1O | inactive; multisex inactive
COc1ccc(C(c2ccc(OC)cc2)C(Cl)(Cl)Cl)cc1 | inactive; multisex inactive; multispecies inactive
CC[N+]([O-])=NC | active; multisite active
O=P(OCC(Br)CBr)(OCC(Br)CBr)OCC(Br)CBr (stereo unspecified) | active; multisite active; multisex active; multispecies active
CC(C)=CCC/C(C)=C/C=O | inactive; multisex inactive; multispecies inactive
N[C@@H](CC(=O)O)C(=O)O | inactive; multisex inactive
COc1cc(/C=C/C(=O)O[C@H]2CC[C@]34C[C@]35CC[C@]3(C)[C@@H]([C@H](C)CCC=C(C)C)CC[C@@]3(C)[C@@H]5CC[C@H]4C2(C)C)ccc1O | inactive; multisex inactive; multispecies inactive
NC(N)=O | inactive; multisex inactive; multispecies inactive
COP(=S)(OC)Oc1ccc([N+](=O)[O-])cc1 | inactive; multisex inactive; multispecies inactive
CN(N)C=O | active; multisite active; multisex active; multispecies active
O=[N+]([O-])c1ccc(-c2nc(N(CCO)CCO)c3ccccc3n2)s1 | active; multisite active
CSCCC(N)C(=O)O (stereo unspecified) | inactive; multispecies inactive
O=NN1CCCC1c1ccc[n+]([O-])c1 (stereo unspecified) | active; multisite active; multisex active
CN(N=O)c1ccccc1 | active; multisex active
CCC1(c2ccccc2)C(=O)NCNC1=O | active; multisite active; multisex active
CNC(=O)Oc1cccc2c1OC(C)(C)C2 | inactive; multisex inactive

Compound | outcome
CCCOC(=O)C1c2cc3c(cc2CC(C)C1C(=O)OCCC)OCO3 (stereo unspecified) | inactive; multisex inactive
O=[N+]([O-])c1ccc2ccc3cccc4ccc1c2c34 | active; multisite active
CCN(N=O)C(=O)NCC(C)=O | active; multisite active; multisex active; multispecies active
CC(Oc1cc(Cl)c(Cl)cc1Cl)C(=O)O (stereo unspecified) | inactive; multisex inactive
O=NN(CCCl)C(=O)N[C@@H]1[C@@H](O)[C@H](O)[C@@H](CO)O[C@@H]1O | active; multisex active
C1CCNCC1 | inactive; multisex inactive
O=NN1CCCC1c1cccnc1 (stereo unspecified) | active; multisite active; multisex active; multispecies active
O=C(NCC1CCCCN1)c1cc(OCC(F)(F)F)ccc1OCC(F)(F)F (stereo unspecified) | inactive; multisex inactive; multispecies inactive
Nc1ccc(N(CCO)CCO)cc1 | inactive; multisex inactive
N#CS | inactive; multisex inactive
Cc1cc(=O)n(-c2ccccc2)n1C | active; multisite active
CC(=O)N(O)c1ccc2c(c1)Cc1ccccc1-2 | active; multisite active; multisex active; multispecies active
CC(C)CCC[C@@H](C)[C@H]1CC[C@H]2[C@@H]3CC=C4C[C@@H](OC(=O)Cc5ccc(N(CCCl)CCCl)cc5)CC[C@]4(C)[C@H]3CC[C@]12C | active; multisite active; multisex active; multispecies active
NC(N)=Nc1nc(CSCCNc2nsnc2N)cs1 | active; multisex active
O.O.O.O.O.O.O=S(=O)([O-])[O-].[Ni+2] | inactive; multisex inactive; multispecies inactive
CCN(Cc1cccc(S(=O)(=O)[O-])c1)c1ccc(C(=C2C=CC(=[N+](C)C)C=C2)c2ccc(N(CC)Cc3cccc(S(=O)(=O)O)c3)cc2)cc1 | active; multisite active
CC(C)CON=O | active; multisex active; multispecies active
COc1cc(N)ccc1N=Nc1ccccc1 | inactive; multisex inactive
CN(CCCC(O)c1cccnc1)N=O (stereo unspecified) | active; multisite active
O.O.O.O.O.O.O.O.O=S(=O)([O-])[O-].O=S(=O)([O-])[O-].O=S(=O)([O-])[O-].[Cd+2].[Cd+2].[Cd+2] | inactive; multispecies inactive
CC(=O)NNC(C)=O | inactive; multisex inactive
Cc1ccc(Cl)cc1N | active; multisite active; multisex active
O=P(OC(CCl)CCl)(OC(CCl)CCl)OC(CCl)CCl | active; multisite active; multisex active
Cc1nc(N)cc2[nH]c3ccccc3c12 | active; multisite active; multisex active; multispecies active

Compound | outcome
NC1CCCCC1 | inactive; multisex inactive; multispecies inactive
O=[N+]([O-])c1ccc(Cl)cc1 | active; multisite active; multisex active
C=C(C)C#N | inactive; multisex inactive; multispecies inactive
CNCc1ccc(CSCCNC(=NCC(O)c2ccc(O)cc2)NS(C)(=O)=O)o1 (stereo unspecified) | active; multisex active
CN(C)N | active; multisite active; multisex active; multispecies active
O=NN1CCCCCCCCCCCC1 | active; multisex active
CCNN | active; multisite active; multisex active
O=CCBr | inactive; multisex inactive
CCN(Cc1cccc(S(=O)(=O)O)c1)c1ccc(C(=C2C=CC(=[N+](CC)Cc3cccc(S(=O)(=O)[O-])c3)C=C2)c2ccccc2)cc1 | active; multisite active; multisex active
CCC[CH2][Sn]([CH2]CCC)([CH2]CCC)[O][Sn]([CH2]CCC)([CH2]CCC)[CH2]CCC | inactive; multisex inactive
O=CNNC=O | active; multisex active
CC(=O)[O][Hg][c]1ccccc1 | inactive; multisex inactive
O=C(OOC(=O)c1ccccc1)c1ccccc1 | inactive; multispecies inactive
CCOC(=O)[C@]1(c2ccccc2)CCC=C[C@H]1N(C)C | inactive; multisex inactive; multispecies inactive
C=CCOC(=O)CC(C)C | active; multisex active; multispecies active
Nc1ccc2nc3ccccn3c2n1 | active; multisite active; multisex active; multispecies active
CC(C)O | inactive; multisex inactive; multispecies inactive
Nc1ncc([N+](=O)[O-])s1 | active; multisite active
C=COC(N)=O | active; multisite active; multisex active
O=C(O)c1cccnc1 | inactive; multisex inactive
Cc1c(COC(=O)C2C(/C=C(\Cl)C(F)(F)F)C2(C)C)cccc1-c1ccccc1 (stereo unspecified) | inactive; multisex inactive
ClCC(Cl)Cl | active; multisite active; multisex active
CN(C)C(=O)Nc1ccc(Cl)c(Cl)c1 | inactive; multisex inactive
O=[N+]([O-])c1ccc(-c2cscn2)o1 | active; multisite active
